From publication PMC7217877, “N-AS-triggered SPMs are direct regulators of microglia in a model of Alzheimer’s disease” (Nature Communications, 2020)
Where “and” joins values, the source holds several entries; their conditions need not be identical. Equal values may be shown once.

Columns and labels:
astrocyte = test: immunofluorescence of ac-S565 and COX2 in primary cells; type: cell-based, C57BL/6 mice; conditions: Ab 10mM, replicates
Procedure: (§1) To confirm the generation and roles of N-AS in neurons, cells from E18 C57BL/6 mice were prepared as previously described. Cortices were dissected and then dissociated followed by incubation in papain (Worthington) at 37 °C for 15 min. Neurons were plated on poly-L-lysine-coated coverslips with neuronal culture medium, serum-free Neurobasal medium (Gibco) containing 2% B27 supplements (Gibco), 1 mM Glutamax supplement (Gibco), and 100 U ml^−1 streptomycin/ 100 U ml^−1 penicillin (Gibco) at 37 °C in a humidified atmosphere of 5% CO2. Aβ 1–42 (10 μM, 24 h, Invitrogen, 03112) was exposed to neurons and the cells were analyzed for the generation and roles of N-AS. Primary astrocyte cultures were prepared from C57BL/6 mice as described previously. […] The human microglia treated with Aβ 1–42 and/or zileuton was incubated with N-AS (2.5 μM, 2 h, Sigma-Aldrich, 01912), and were analyzed for the generation and roles of N-AS.
(§2) Thioflavin S (Sigma-Aldrich) staining was carried out according to previously described procedures. […] The sections were analyzed with a laser-scanning confocal microscope (FV3000; Olympus) or with a BX51 microscope (Olympus). MetaMorph software (Molecular Devices) was used to quantification. Three-dimensional reconstruction of microglia was recorded and analyzed using IMARIS software (Bitplane)[11]. […]

microglia = test: as above; type: cell-based, C57BL/6 mice; conditions: Ab 10mM, replicates
Procedure: as §1, §2

## Ab: Aβ 1–42 (Invitrogen, 03112) used to induce an AD environment in cells
astrocyte
  ac-S565 with COX2, immunofluorescence quantification (Fig 3c): 0.03307 and 0.0783 and 0.03875 and 0.05053 and 0.0718 and 0.07636
microglia
  ac-S565 with COX2, immunofluorescence quantification (Fig 3c): 0.1091 and 0.1473 and 0.02354 and 0.07315 and 0.06621 and 0.05168
